Holding throughout (format): cell-based
The target of assay [1] is T1, human muscarinic M3 receptor (Homo sapiens, UniProt P20309).
T1 construct: expressed in transfected cells
In words: Alphascreen Surefire phospho-ERK1/2 functional assay, M3. Conditions: for EC50: CHO cells stably expressing human M3, phospho-ERK1/2, read-out: pEC50 M3 (converted); for Emax: CHO, read-out: % Emax cf. ACh, M3. On the procedure:
(§1) ERK1/2 phosphorylation is a downstream consequence of both Gq/11 and Gi/o protein coupled receptor activation, making it highly suitable for the assessment of M1, M3 (Gq/11 coupled) and M2, M4 receptors (Gi/o coupled), rather than using different assay formats for different receptor subtypes. CHO cells stably expressing the human muscarinic M1, M2, M3 or M4 receptor were plated (25K/well) onto 96-well tissue culture plates in MEM-alpha+10% dialysed FBS. Once adhered, cells were serum-starved overnight. Agonist stimulation was performed by the addition of 5 μL agonist to the cells for 5 min (37° C.). Media was removed and 50 μL of lysis buffer added. After 15 min, a 4 μL sample was transferred to 384-well plate and 7 μL of detection mixture added. Plates were incubated for 2 h with gentle agitation in the dark and then read on a PHERAstar plate reader.
(§2) pEC50 and Emax figures were calculated from the resulting data for each receptor subtype.

Assay [2] concerns the target T2, human muscarinic M4 receptor (Homo sapiens, UniProt P08173).
T2 construct: expressed in transfected cells
T2 sequence (P08173 1-479): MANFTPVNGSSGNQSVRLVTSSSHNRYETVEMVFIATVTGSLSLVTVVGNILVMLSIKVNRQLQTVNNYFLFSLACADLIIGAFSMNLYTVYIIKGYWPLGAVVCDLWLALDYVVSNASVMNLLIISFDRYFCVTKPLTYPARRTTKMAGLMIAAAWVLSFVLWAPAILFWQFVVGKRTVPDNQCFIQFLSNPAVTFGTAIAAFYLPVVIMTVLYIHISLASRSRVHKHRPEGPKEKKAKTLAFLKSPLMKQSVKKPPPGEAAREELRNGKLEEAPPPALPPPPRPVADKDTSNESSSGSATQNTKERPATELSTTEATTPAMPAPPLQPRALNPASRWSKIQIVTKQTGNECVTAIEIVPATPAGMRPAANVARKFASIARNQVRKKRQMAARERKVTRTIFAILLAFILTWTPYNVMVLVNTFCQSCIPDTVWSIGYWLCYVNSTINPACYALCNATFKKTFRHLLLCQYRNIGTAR
In words: Alphascreen Surefire phospho-ERK1/2 functional assay, M4. Conditions: for EC50: phospho-ERK1/2, read-out: pEC50 M4 (converted); for Emax: CHO. As for the experimental part: as §1, §2
(Bead proximity is the source of the signal in Alpha formats.)

Assay [3] addresses T3, human muscarinic M2 receptor (Homo sapiens, UniProt P08172).
T3 construct: expressed in transfected cells
T3 sequence (P08172 1-466): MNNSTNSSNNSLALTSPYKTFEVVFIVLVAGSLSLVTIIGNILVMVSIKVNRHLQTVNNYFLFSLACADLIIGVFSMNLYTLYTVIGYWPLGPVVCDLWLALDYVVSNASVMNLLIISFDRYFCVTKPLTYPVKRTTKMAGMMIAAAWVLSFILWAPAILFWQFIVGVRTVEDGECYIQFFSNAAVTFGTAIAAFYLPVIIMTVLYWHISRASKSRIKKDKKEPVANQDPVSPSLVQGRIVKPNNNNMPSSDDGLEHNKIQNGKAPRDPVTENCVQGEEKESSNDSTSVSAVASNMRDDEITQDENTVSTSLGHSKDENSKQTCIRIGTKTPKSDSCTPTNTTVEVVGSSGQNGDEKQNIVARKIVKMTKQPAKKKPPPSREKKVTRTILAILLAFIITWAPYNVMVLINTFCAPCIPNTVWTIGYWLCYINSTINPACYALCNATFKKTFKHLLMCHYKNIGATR
Put plainly: Alphascreen Surefire phospho-ERK1/2 functional assay, M2. As to conditions: for EC50: CHO cells stably expressing human M2, phospho-ERK1/2, read-out: pEC50 M2 (converted); for Emax: CHO, read-out: % Emax cf. ACh, M2. On the procedure: as §1, §2

Assay [4] concerns the target T4, human muscarinic M1 receptor (Homo sapiens, UniProt P11229).
T4 construct: expressed in transfected cells
T4 sequence (P11229 1-460): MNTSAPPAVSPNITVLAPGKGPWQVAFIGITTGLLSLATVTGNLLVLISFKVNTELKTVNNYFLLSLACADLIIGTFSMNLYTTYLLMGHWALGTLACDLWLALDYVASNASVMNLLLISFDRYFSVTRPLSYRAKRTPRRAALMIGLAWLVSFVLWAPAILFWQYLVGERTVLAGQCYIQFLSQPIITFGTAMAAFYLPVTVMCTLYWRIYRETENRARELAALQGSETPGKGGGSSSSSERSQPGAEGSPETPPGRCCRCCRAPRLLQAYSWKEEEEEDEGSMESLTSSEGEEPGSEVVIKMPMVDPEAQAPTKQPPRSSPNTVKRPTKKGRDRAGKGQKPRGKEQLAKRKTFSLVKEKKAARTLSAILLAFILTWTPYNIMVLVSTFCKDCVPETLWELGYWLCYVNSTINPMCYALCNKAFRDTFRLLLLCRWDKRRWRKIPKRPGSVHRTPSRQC
In words: Alphascreen Surefire phospho-ERK1/2 functional assay, M1. Conditions: for EC50: phospho-ERK1/2, read-out: pEC50 M1 (converted); for Emax: CHO. As for the experimental part:
as §1, §2

Where [5] appears, read: CHO cells stably expressing human M4.
[6] abbreviates: CHO cells stably expressing human M1.

Read-outs that look alike come from different tables or passages of the source. Some results are limits rather than exact numbers.

T1 sequence (P20309 whole entry): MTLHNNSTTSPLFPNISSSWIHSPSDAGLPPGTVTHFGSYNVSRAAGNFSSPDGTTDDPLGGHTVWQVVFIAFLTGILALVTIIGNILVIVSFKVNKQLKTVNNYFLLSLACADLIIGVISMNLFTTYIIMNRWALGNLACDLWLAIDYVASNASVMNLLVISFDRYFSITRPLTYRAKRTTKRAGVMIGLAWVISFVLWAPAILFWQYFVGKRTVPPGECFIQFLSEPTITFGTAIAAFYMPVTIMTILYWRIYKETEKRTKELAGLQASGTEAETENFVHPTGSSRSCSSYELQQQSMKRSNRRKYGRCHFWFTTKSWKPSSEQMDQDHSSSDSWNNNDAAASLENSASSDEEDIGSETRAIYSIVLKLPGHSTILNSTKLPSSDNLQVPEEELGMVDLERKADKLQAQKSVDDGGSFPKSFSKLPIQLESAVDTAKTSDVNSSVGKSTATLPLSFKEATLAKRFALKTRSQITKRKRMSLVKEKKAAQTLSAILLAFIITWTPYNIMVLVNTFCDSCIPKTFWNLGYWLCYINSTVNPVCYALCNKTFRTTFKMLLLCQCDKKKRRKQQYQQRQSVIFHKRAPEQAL

Turning to `CCOC(=O)N1CCC2(CC(N3CCC(F)(C(=O)NC4(C)CCC4)CC3)C2)C1` (mixture of isomers) [Example 11 - mixture of diastereomers, ethyl 2-{4-fluoro-4-[(1-methylcyclobutyl)carbamoyl]piperidin-1-yl}-6-azaspiro[3.4]octane-6-carboxylate], the EC50 is greater than 20000 nM in assay [1], 204 nM in assay [2] (setting [5]), greater than 20000 nM in assay [3] and 28.2 nM in assay [4] (setting [6]). The Emax was determined as 4% in assay [1]; 77% in assay [2] (read-out: % Emax cf. ACh, M4); 6% in assay [3]; 112% in assay [4] (read-out: % Emax cf. ACh, M1).
As to `CCOC(=O)N1CC2(CCC(N3CCC(C(=O)NC4(C)CCC4)CC3)C2)C1` (racemic) [Example 12 - racemic, ethyl 6-{4-[(1-methylcyclobutyl)carbamoyl]piperidin-1-yl}-2-azaspiro[3.4]octane-2-carboxylate], the EC50 in assay [1] is greater than 20000 nM; in assay [2] (setting [5]) it was 53.7 nM; in assay [3], greater than 20000 nM; in assay [4] (setting [6]) it was 35.5 nM. Besides, the Emax came out at 78% in assay [1]; 49% in assay [2] (read-out: % Emax cf. ACh, M4); 8% in assay [3]; 141% in assay [4] (read-out: % Emax cf. ACh, M1).
On to `CCOC(=O)N1C2CCC1CC(N1CCC(C(=O)NC3(C)CCC3)CC1)C2` (single isomer, unassigned) [Example 1 - Isomer 2, ethyl 3-{4-[(1-methylcyclobutyl)carbamoyl]piperidin-1-yl}-8-azabicyclo[3.2.1]octane-8-carboxylate], for which the EC50 was greater than 20000 nM in assay [1], 170 nM in assay [2] (setting [5]), greater than 20000 nM in assay [3] and 41.7 nM in assay [4] (setting [6]). In addition, the Emax in assay [1] amounted to 18%; in assay [3], 0%. Further, in assay [2] (CHO cells stably expressing human M4, relative to ACh, listed as 1 - Isomer 2), the “% Emax cf. ACh, M4” value amounted to 98%. Further, the “% Emax cf. ACh, M1” value in assay [4] (CHO cells stably expressing human M1, relative to ACh) came out at 102%.
Turning to `CCOC(=O)N1[C@@H]2CCC[C@H]1CC(N1CCC(C(=O)NC3(C)CCC3)CC1)C2` (mixture of isomers) [Example 6 - mixture of diastereomers, ethyl 3-{4-[(1-methylcyclobutyl)carbamoyl]piperidin-1-yl}-9-azabicyclo[3.3.1]nonane-9-carboxylate], the EC50 in assay [1] was greater than 20000 nM; in assay [2] (setting [5]), 468 nM; in assay [3], greater than 20000 nM; in assay [4] (setting [6]) it was 43.7 nM. Besides, the Emax in assay [1] was determined as 5%; in assay [2] (read-out: % Emax cf. ACh, M4, CHO cells stably expressing human M4, relative to ACh), 54%; in assay [3], 13%; in assay [4] (read-out: % Emax cf. ACh, M1, CHO cells stably expressing human M1, relative to ACh) it was 151%.
Turning to `[2H]C([2H])([2H])C([2H])([2H])OC(=O)N1CCC2(CC(N3CCC(C(=O)NC4(C)CCC4)CC3)C2)C1` (single isomer, unassigned) [Example 29 - Isomer 2, (1,1,2,2,2-pentadeutero)ethyl 2-{4-[(1-methylcyclobutyl)carbamoyl]piperidin-1-yl}-6-azaspiro[3.4]octane-6-carboxylate], the EC50 in assay [1] is greater than 20000 nM; in assay [2] (setting [5]), 186 nM; in assay [3], greater than 20000 nM; in assay [4] (setting [6]), 55 nM. The Emax was determined as 13% in assay [1]; 91% in assay [2] (read-out: % Emax cf. ACh, M4); 18% in assay [3]; 107% in assay [4] (read-out: % Emax cf. ACh, M1).
Take `[2H]C([2H])([2H])COC(=O)N1CCC2(CC(N3CCC(C(=O)NC4(C)CCC4)CC3)C2)C1` (single isomer, unassigned) [Example 25 - Isomer 2, (2,2,2-trideutero)ethyl 2-{4-[(1-methylcyclobutyl)carbamoyl]piperidin-1-yl}-6-azaspiro[3.4]octane-6-carboxylate]: the EC50 in assay [1] was greater than 20000 nM; in assay [2] (setting [5]), 174 nM; in assay [3], greater than 20000 nM; in assay [4] (setting [6]), 53.7 nM. For the same compound, the Emax in assay [1] stood at 17%; in assay [2] (read-out: % Emax cf. ACh, M4), 83%; in assay [3], 23%; in assay [4] (read-out: % Emax cf. ACh, M1), 108%.

What is called Emax is the size of the effect at its maximum, as opposed to the concentration needed.

The values are drawn from patent US9266857B2, “Bicyclic AZA compounds as muscarinic M1 receptor agonists” (Heptares Therapeutics Limited, priority 2012, dated 2016).
